From ChEMBL document CHEMBL1201862, “PubChem BioAssay data set” (2004)
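Values below derive from 48-hour exposures of cells grown in 96-well plates, with endpoints linearly interpolated between the two concentrations bracketing the appropriate inhibition level. GI50 = concentration required for 50% inhibition of growth.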 Active and inactive are the calls of the source. No stated cut-off is given here; in the data, active = GI50 up to about 1.1 µM and inactive = higher.

How the values were obtained:
Experiment in all cases: NCI-60 cell line screen, 48 h
CCRF-CEM = system: CCRF-CEM
EKVX = system: EKVX
HCT-116 = system: HCT-116
K562 = system: K562
KM12 = system: KM12
LOX IMVI = system: LOX IMVI
MOLT-4 = system: MOLT-4
NCI-H23 = system: NCI-H23
NCI-H460 = system: NCI-H460
NCI-H522 = system: NCI-H522
SF-268 = system: SF-268
SF-539 = system: SF-539
SK-OV-3 = system: SK-OV-3
SNB-75 = system: SNB-75
U-251 = system: U-251
UACC-257 = system: UACC-257
A549 = system: A549
COLO 205 = system: COLO 205
RPMI-8226 = system: RPMI-8226
SW-620 = system: SW-620

Measured: GI50

Cc1cccc(NC(N)=S)c1
inactive: CCRF-CEM > 100 µM | EKVX > 100 µM | HCT-116 > 100 µM | K562 > 100 µM | KM12 > 100 µM | LOX IMVI > 100 µM | MOLT-4 > 100 µM | NCI-H23 > 100 µM | NCI-H460 > 100 µM | NCI-H522 > 100 µM | SF-268 > 100 µM | SF-539 > 100 µM | SK-OV-3 > 100 µM | SNB-75 > 100 µM | U-251 > 100 µM | UACC-257 > 100 µM

COP(=O)(OC)C(Cc1c[nH]c2ccccc12)NC(=O)OCc1ccccc1 (stereo not given)
inactive: A549 > 100 µM | CCRF-CEM 5.89 µM | COLO 205 > 100 µM | HCT-116 > 100 µM | K562 > 100 µM | LOX IMVI > 100 µM | NCI-H23 > 100 µM | NCI-H460 > 100 µM | NCI-H522 > 100 µM | RPMI-8226 > 100 µM | SK-OV-3 > 100 µM | SNB-75 > 100 µM | SW-620 > 100 µM | U-251 > 100 µM | UACC-257 > 100 µM

Oc1[nH]c(Nc2cccc(Br)c2)nc2ncnc1-2
inactive: A549 > 100 µM | CCRF-CEM 54.7 µM | COLO 205 > 100 µM | EKVX > 100 µM | HCT-116 53.8 µM | K562 26.5 µM | KM12 > 100 µM | LOX IMVI > 100 µM | MOLT-4 > 100 µM | NCI-H23 > 100 µM | NCI-H460 > 100 µM | NCI-H522 > 100 µM | RPMI-8226 > 100 µM | SF-268 56.4 µM | SK-OV-3 > 100 µM | SNB-75 57.7 µM | SW-620 > 100 µM | UACC-257 > 100 µM

O=C(O)c1c[nH]c2c(=O)[nH]cnc12
inactive: A549 > 100 µM | CCRF-CEM > 100 µM | COLO 205 > 100 µM | EKVX > 100 µM | HCT-116 > 100 µM | K562 > 100 µM | KM12 > 100 µM | LOX IMVI > 100 µM | MOLT-4 > 100 µM | NCI-H23 > 100 µM | NCI-H522 > 100 µM | RPMI-8226 > 100 µM | SF-268 > 100 µM | SK-OV-3 > 100 µM | SNB-75 > 100 µM | SW-620 > 100 µM | UACC-257 > 100 µM

c1ccc(P2c3ccccc3Nc3ccccc32)cc1
inactive: A549 42.5 µM | CCRF-CEM 23.6 µM | COLO 205 32.7 µM | EKVX 34 µM | HCT-116 38.6 µM | K562 44.1 µM | KM12 37.2 µM | LOX IMVI 45.8 µM | MOLT-4 24.8 µM | NCI-H23 72.9 µM | NCI-H460 62.1 µM | NCI-H522 62.5 µM | SF-268 71.6 µM | SF-539 59.8 µM | SK-OV-3 > 100 µM | SNB-75 11.4 µM | SW-620 > 100 µM | U-251 56.1 µM | UACC-257 43.1 µM
